# US10370387B2, “Tricyclic fused thiophene derivatives as JAK inhibitors” (Incyte Corporation, priority 2012, dated 2019)
# System: human JAK1
# Assay: In vitro JAK kinase assay (HTRF, phosphorylation of biotinylated peptide), JAK1
# Type: biochemical
# Details: ratio of JAK2 IC50 to JAK1 IC50, 1 mM ATP
# Experimental: Compounds herein were tested for inhibitory activity of JAK targets according to the following in vitro assay described in Park et al., Analytical Biochemistry 1999, 269, 94-104. The catalytic domains of human JAK1 (a.a. 837-1142), JAK2 (a.a. 828-1132) and JAK3 (a.a. 781-1124) were expressed using baculovirus in insect cells and purified. The catalytic activity of JAK1, JAK2 or JAK3 was assayed by measuring the phosphorylation of a biotinylated peptide. The phosphorylated peptide was detected by homogenous time resolved fluorescence (HTRF). IC50s of compounds were measured for each kinase in the 40 μL reactions that contain the enzyme, ATP and 500 nM peptide in 50 mM Tris (pH 7.8) buffer with 100 mM NaCl, 5 mM DTT, and 0.1 mg/mL (0.01%) BSA. For the 1 mM IC50 measurements, ATP concentration in the reactions was 1 mM. Reactions were carried out at room temperature for 1 hour and then stopped with 20 μL 45 mM EDTA, 300 nM SA-APC, 6 nM Eu-Py20 in assay buffer (Perkin Elmer, Boston, Mass.). Binding to the Europium labeled antibody took place for 40 minutes and HTRF signal was measured on a PHERA star plate reader (BMG, Cary, N.C.). The Example compounds were each tested in the Example A assay (see Table 1 for data for the compounds of the examples as tested by the assay of Example A at 1 mM ATP).
row,Molecule,JAK2/JAK1
1,"N#CC[C@H]1CC[C@H](n2c(C3CC3)nc3cnc4ccsc4c32)CC1 [Example 26, [trans-4-(2-Cyclopropyl-1H-imidazo[4,5-d]thieno[3,2-b]pyridin-1-yl)cyclohexyl]acetonitrile]",>10
2,"C[C@@H](O)c1nc2cnc3ccsc3c2n1[C@H]1CC[C@@H](CC#N)OC1 [Example 21, ((2S,5S)-5-{2-[(1R)-1-Hydroxyethyl]-1H-imidazo[4,5-d]thieno[3,2-b]pyridin-1-yl}tetrahydro-2H-pyran-2-yl)acetonitrile]",>10
3,"C[C@@H](O)c1nc2cnc3ccsc3c2n1[C@H]1CC[C@@H](C#N)CC1 [Example 7, cis-4-{2-[(1R)-1-Hydroxyethyl]-1H-imidazo[4,5-d]thieno[3,2-b]pyridin-1-yl}cyclohexanecarbonitrile]",>10
4,"((1R,2R,4S)-2-Hydroxy-4-{2-[(1R)-1-hydroxyethyl]-1H-imidazo[4,5-d]thieno[3,2-b]pyridin-1-yl}cyclohexyl)acetonitrile and ((1S,2S,4R)-2-hydroxy-4-{2-[(1R)-1-hydroxyethyl]-1H-imidazo[4,5-d]thieno[3,2-b]pyridin-1-yl}cyclohexyl)acetonitrile [36 (first peak)]",>10
5,"CC(=O)NC(C)c1nc2cnc3ccsc3c2n1[C@H]1CC[C@H](CC#N)OC1 (stereo partly drawn) [Example 69, N-(1-{1-[(3S,6R)-6-(Cyanomethyl)tetrahydro-2H-pyran-3-yl]-1H-imidazo[4,5-d]thieno[3,2-b]pyridin-2-yl}ethyl) acetamide]",>10
6,"C[C@@H](O)c1nc2cnc3ccsc3c2n1[C@H]1CCCN(C(=O)CCc2cn[nH]c2)C1 [Example 53, (1R)-1-(1-{(3S)-1-[3-(1H-Pyrazol-4-yl)propanoyl]piperidin-3-yl}-1H-imidazo[4,5-d]thieno[3,2-b]pyridin-2-yl)ethanol]",>10
7,"C[C@@H](O)c1nc2cnc3ccsc3c2n1[C@H]1CC[C@H](CC#N)OC1 [Example 20, ((2R,5S)-5-{2-[(1R)-1-Hydroxyethyl]-1H-imidazo[4,5-d]thieno[3,2-b]pyridin-1-yl}tetrahydro-2H-pyran-2-yl)acetonitrile]",>10
8,"C[C@@H](O)c1nc2cnc3ccsc3c2n1[C@H]1CCC(CO)OC1 (stereo partly drawn) [Example 19, (1R)-1-{1-[(3S)-6-(Hydroxymethyl)tetrahydro-2H-pyran-3-yl]-1H-imidazo[4,5-d]thieno[3,2-b]pyridin-2-yl}ethanol]",>10
9,"C[C@@H](O)c1nc2cnc3ccsc3c2n1[C@H]1CC[C@H](CNC(=O)OC2CCOC2)CC1 (stereo partly drawn) [Example 85, Tetrahydrofuran-3-yl [(trans-4-{2-[(1R)-1-hydroxyethyl]-1H-imidazo[4,5-d]thieno[3,2-b]pyridin-1-yl}cyclohexyl)methyl]carbamate]",>10
10,"((1R,2S,4S)-2-Hydroxy-4-{2-[(1R)-1-hydroxyethyl]-1H-imidazo[4,5-d]thieno[3,2-b]pyridin-1-yl}cyclohexyl)acetonitrile trifluoacetate and ((1S,2R,4R)-2-hydroxy-4-{2-[(1R)-1-hydroxyethyl]-1H-imidazo[4,5-d]thieno[3,2-b]pyridin-1-yl}cyclohexyl)acetonitrile trifluoacetate [37 (second peak)]",>10
11,"CC(N)c1nc2cnc3ccsc3c2n1[C@H]1CC[C@H](CC#N)OC1.O=C(O)C(F)(F)F (stereo partly drawn) [Example 68, {(2R,5S)-5-[2-(1-Aminoethyl)-1H-imidazo[4,5-d]thieno[3,2-b]pyridin-1-yl]tetrahydro-2H-pyran-2-yl}acetonitrile trifluoroacetate]",>10
12,"CCNC(=O)C[C@H]1CC[C@H](n2c([C@@H](C)O)nc3cnc4ccsc4c32)CC1 [Example 31, N-Ethyl-2-(trans-4-{2-[(1R)-1-hydroxyethyl]-1H-imidazo[4,5-d]thieno[3,2-b]pyridin-1-yl}cyclohexyl)acetamide]",>10
13,"C[C@@H](O)c1nc2cnc3ccsc3c2n1[C@H]1CC[C@H](O)CC1 [Example 3, trans-4-{2-[(1R)-1-Hydroxyethyl]-1H-imidazo[4,5-d]thieno[3,2-b]pyridin-1-yl}cyclohexanol]",>10
14,"Cc1nc2cnc3ccsc3c2n1[C@H]1CC[C@H](CC#N)OC1 [Example 38, [(2R,5S)-5-(2-Methyl-1H-imidazo[4,5-d]thieno[3,2-b]pyridin-1-yl)tetrahydro-2H-pyran-2-yl]acetonitrile]",>10
15,"[(1R,2S,4S)-4-(2-Ethyl-1H-imidazo[4,5-d]thieno[3,2-b]pyridin-1-yl)-2-hydroxycyclohexyl]acetonitrile and [(1S,2R,4R)-4-(2-ethyl-1H-imidazo[4,5-d]thieno[3,2-b]pyridin-1-yl)-2-hydroxycyclohexyl]acetonitrile [40 (first peak)]",>10
16,"C[C@@H](O)c1nc2cnc3ccsc3c2n1[C@@H]1CC[C@@H](CC#N)OC1 [Example 44, ((2S,5R)-5-{2-[(1R)-1-Hydroxyethyl]-1H-imidazo[4,5-d]thieno[3,2-b]pyridin-1-yl}tetrahydro-2H-pyran-2-yl)acetonitrile]",>10
17,C[C@@H](O)c1nc2cnc3ccsc3c2n1[C@H]1CCCN(C(=O)CCc2ccccc2)C1 [Example 57],>10
18,"C[C@@H](O)c1nc2cnc3ccsc3c2n1[C@H]1CC[C@H](CNS(C)(=O)=O)OC1 [Example 75, N-[((2R,5S)-5-{2-[(1R)-1-Hydroxyethyl]-1H-imidazo[4,5-d]thieno[3,2-b]pyridin-1-yl}tetrahydro-2H-pyran-2-yl)methyl]methanesulfonamide]",>10

# Continued, values first:
row,JAK2/JAK1,Molecule
1,>9,"C[C@@H](O)c1nc2cnc3ccsc3c2n1C1CCN(CC(F)(F)F)CC1 [Example 15, (1R)-1-{1-[1-(2,2,2-Trifluoroethyl)piperidin-4-yl]-1H-imidazo[4,5-d]thieno[3,2-b]pyridin-2-yl}ethanol]"
2,>10,"C[C@@H](O)c1cc2cnc3ccsc3c2n1[C@H]1CC[C@H](CC#N)CC1 [Example 23, (trans-4-{7-[(1R)-1-Hydroxyethyl]-8H-pyrrolo[2,3-d]thieno[3,2-b]pyridin-8-yl}cyclohexyl)acetonitrile]"
3,>10,"CC(C)c1nc2cnc3ccsc3c2n1[C@H]1CC[C@H](CC#N)CC1 [Example 27, [trans-4-(2-Isopropyl-1H-imidazo[4,5-d]thieno[3,2-b]pyridin-1-yl)cyclohexyl]acetonitrile]"
4,>5,"N#CCC1CCC(CO)(n2cnc3cnc4ccsc4c32)CC1 (single isomer, unassigned) [72 (second peak), [4-(Hydroxymethyl)-4-(1H-imidazo[4,5-d]thieno[3,2-b]pyridin-1-yl)cyclohexyl]acetonitrile]"
5,>10,"C[C@@H](O)c1nc2cnc3ccsc3c2n1[C@H]1CCCN(C(=O)CCCC#N)C1 [Example 59, 5-((3S)-3-{2-[(1R)-1-Hydroxyethyl]-1H-imidazo[4,5-d]thieno[3,2-b]pyridin-1-yl}piperidin-1-yl)-5-oxopentanenitrile]"
6,>10,"CCOC(=O)NC[C@H]1CC[C@H](n2c(CC#N)nc3cnc4ccsc4c32)CC1 [Example 87, Ethyl ({trans-4-[2-(cyanomethyl)-1H-imidazo[4,5-d]thieno[3,2-b]pyridin-1-yl]cyclohexyl}methyl)carbamate]"
7,>7,"Cc1nc2cnc3ccsc3c2n1[C@H]1CC[C@H](CC#N)CC1 [Example 48, [trans-4-(2-Methyl-1H-imidazo[4,5-d]thieno[3,2-b]pyridin-1-yl)cyclohexyl]acetonitrile]"
8,>6,"C[C@@H](O)c1nc2cnc3ccsc3c2n1[C@H]1CC[C@@H](n2cncn2)CC1 [Example 6, (1R)-1-{1-[cis-4-(1H-1,2,4-Triazol-1-yl)cyclohexyl]-1H-imidazo[4,5-d]thieno[3,2-b]pyridin-2-yl}ethanol]"
9,>6,"N#CC[C@H]1CC[C@H](n2/c(=N/C#N)[nH]c3cnc4ccsc4c32)CC1.O=C(O)C(F)(F)F [Example 25, {(2E)-1-[trans-4-(Cyanomethyl)cyclohexyl]-1,3-dihydro-2H-imidazo[4,5-d]thieno[3,2-b]pyridin-2-ylidene}cyanamide trifluoroacetate]"
10,>6,"C[C@@H](O)c1nc2cnc3ccsc3c2n1[C@H]1CCN(C(=O)CC#N)C1 [Example 63, 3-((3S)-3-{2-[(1R)-1-Hydroxyethyl]-1H-imidazo[4,5-d]thieno[3,2-b]pyridin-1-yl}pyrrolidin-1-yl)-3-oxopropanenitrile]"
11,>10,"C[C@@H](O)c1nc2cnc3ccsc3c2n1[C@H]1CCN(CCCC(F)(F)F)C1 [Example 64, (1R)-1-{1-[(3S)-1-(4,4,4-Trifluorobutyl)pyrrolidin-3-yl]-1H-imidazo[4,5-d]thieno[3,2-b]pyridin-2-yl}ethanol]"
12,>10,"CC(C)OC(=O)NC[C@H]1CC[C@H](n2c(CC#N)nc3cnc4ccsc4c32)CC1 [Example 88, Isopropyl ({trans-4-[2-(cyanomethyl)-1H-imidazo[4,5-d]thieno[3,2-b]pyridin-1-yl]cyclohexyl}methyl)carbamate]"
13,>10,"C[C@@H](O)c1nc2cnc3ccsc3c2n1[C@H]1CCN(CCCCC#N)C1 [Example 66, 5-((3S)-3-{2-[(1R)-1-Hydroxyethyl]-1H-imidazo[4,5-d]thieno[3,2-b]pyridin-1-yl}pyrrolidin-1-yl)pentanenitrile]"
